How the values were obtained:
BT-549 = experiment: In vitro growth inhibition against breast cancer BT 549 cell line was reported.; assay type: functional; details: Homo sapiens
Hs-578T = experiment: In vitro growth inhibition against breast cancer HS 578T cell line was reported.; assay type: functional; details: Homo sapiens
HCT-116 = experiment: Log of molar concentration leading to 50% cell death against colon cancer HCT116 cell line was reported; assay type: functional; details: Homo sapiens, read-out: Log LC50 (the source's name) (converted)
SF-295 = experiment: In vitro total growth inhibition against CNS cancer SF-295 cell lines was reported.; assay type: functional; details: Homo sapiens, read-out: Log TGI (converted)
Tumor Cell line = experiment: Log of molar concentration leading to 50% cell death was reported; assay type: functional; details: Homo sapiens, read-out: Log LC50 (the source's name) (converted)
HL-60 = experiment: In vitro growth inhibition against leukemia HL-60(TB) cell line was reported.; assay type: functional; details: Homo sapiens
MOLT-4 = experiment: In vitro total growth inhibition against leukemia MOLT-4 cell lines was reported.; assay type: functional; details: Homo sapiens, read-out: Log TGI (converted)
M14 [1] = experiment: In vitro growth inhibition against melanoma M14 cell line was reported.; assay type: functional; details: Homo sapiens
SK-MEL-2 = experiment: In vitro growth inhibition against melanoma SK-MEL-2 cell line was reported.; assay type: functional; details: Homo sapiens
SK-MEL-5 = experiment: In vitro growth inhibition against melanoma SK-MEL-5 cell line was reported.; assay type: functional; details: Homo sapiens
NCI-H46 = experiment: Log of molar concentration leading to 50% cell death against non-small-cell lung cancer […] cell line was reported; assay type: functional; details: Homo sapiens, read-out: Log LC50 (the source's name) (converted)
NCI-H522 = experiment: Log of molar concentration leading to 50% cell death against non-small-cell lung cancer NCI-522 cell line was reported; assay type: functional; details: Homo sapiens, read-out: Log LC50 (the source's name) (converted)
OVCAR-4 [2] = experiment: In vitro total growth inhibition against ovarian cancer OVCAR-4 cell lines was reported.; assay type: functional; details: Homo sapiens, read-out: Log TGI (converted)
OVCAR-5 [3] = experiment: In vitro total growth inhibition against ovarian cancer OVCAR-5 cell lines was reported.; assay type: functional; details: Homo sapiens, read-out: Log TGI (converted)
SK-OV-3 = experiment: In vitro total growth inhibition against ovarian cancer SK-OV-3 cell lines was reported.; assay type: functional; details: Homo sapiens, read-out: Log TGI (converted)
CAKI-1 = experiment: In vitro growth inhibition against renal cancer CAKI-1 cell line was reported.; assay type: functional; details: Homo sapiens
786-0 = experiment: In vitro growth inhibition against renal cancer […] cell line was reported.; assay type: functional; details: Homo sapiens
A498 [4] = experiment: In vitro growth inhibition against renal cancer A498 cell line was reported.; assay type: functional; details: Homo sapiens
SN12C = experiment: In vitro growth inhibition against renal cancer SN12C cell line was reported.; assay type: functional; details: Homo sapiens
UO-31 [5] = experiment: In vitro growth inhibition against renal cancer UO-31 cell line was reported.; assay type: functional; details: Homo sapiens
SR [6] = experiment: Log of molar concentration leading to 50% cell death against leukemia SR cell line was reported; assay type: functional; details: Homo sapiens, read-out: Log LC50 (the source's name) (converted)
SW-620 = experiment: Log of molar concentration leading to 50% cell death against colon cancer SW620 cell line was reported; assay type: functional; details: Homo sapiens, read-out: Log LC50 (the source's name) (converted)
OVCAR-5 [7] = experiment: Log of molar concentration leading to 50% cell death against ovarian cancer […] cell line was reported; assay type: functional; details: Homo sapiens, read-out: Log LC50 (the source's name) (converted)
OVCAR-4 [8] = experiment: Log of molar concentration leading to 50% cell death against ovarian cancer OVCAR-4 cell line was reported; assay type: functional; details: Homo sapiens, read-out: Log LC50 (the source's name) (converted)
[9] = Log of molar concentration leading to 50% cell death against breast cancer MDA-MB-435 cell line was reported; assay type: functional; details: Homo sapiens, read-out: Log LC50 (the source's name) (converted)
T47D = experiment: Log of molar concentration leading to 50% cell death against breast cancer […] cell line was reported; assay type: functional; details: Homo sapiens, read-out: Log LC50 (the source's name) (converted)
LOX IMVI [10] = experiment: Log of molar concentration leading to 50% cell death against melanoma LOX IMVI cell line was reported; assay type: functional; details: Homo sapiens, read-out: Log LC50 (the source's name) (converted)
LOX IMVI [11] = experiment: In vitro total growth inhibition against melanoma LOX IMVI cell lines was reported.; assay type: functional; details: Homo sapiens, read-out: Log TGI (converted)
M14 [12] = experiment: In vitro total growth inhibition against melanoma M14 cell lines was reported.; assay type: functional; details: Homo sapiens, read-out: Log TGI (converted)
Malme-3M [13] = experiment: Log of molar concentration leading to 50% cell death against melanoma MALME 3M cell line was reported; assay type: functional; details: Homo sapiens, read-out: Log LC50 (the source's name) (converted)
Malme-3M [14] = experiment: In vitro total growth inhibition against melanoma MALME 3M cell lines was reported.; assay type: functional; details: Homo sapiens, read-out: Log TGI (converted)
A549 = experiment: Log of molar concentration leading to 50% cell death against non-small-cell lung cancer A 549/ATCC cell line was reported; assay type: functional; details: Homo sapiens, read-out: Log LC50 (the source's name) (converted)
ACHN = experiment: In vitro growth inhibition against renal cancer ACHN cell line was reported.; assay type: functional; details: Homo sapiens
COLO 205 = experiment: In vitro growth inhibition against colon cancer COLO 205 cell line was reported.; assay type: functional; details: Homo sapiens
UO-31 [15] = experiment: In vitro total growth inhibition against renal cancer UO-31 cell lines was reported.; assay type: functional; details: Homo sapiens, read-out: Log TGI (converted)
SR [16] = experiment: In vitro total growth inhibition against leukemia SR cell lines was reported.; assay type: functional; details: Homo sapiens, read-out: Log TGI (converted)
A498 [17] = experiment: In vitro total growth inhibition against renal cancer A-498 cell lines was reported.; assay type: functional; details: Homo sapiens, read-out: Log TGI (converted)
OVCAR-8 = experiment: Log of molar concentration leading to 50% cell death against ovarian cancer OVCAR-8 cell line was reported; assay type: functional; details: Homo sapiens, read-out: Log LC50 (the source's name) (converted)
HOP-92 = experiment: In vitro total growth inhibition against non-small-cell lung cancer HOP-92 cell lines was reported.; details: Homo sapiens, read-out: Log TGI (converted)

Cc1ccc2cccc(NC(=O)c3cc4c(cc3Cl)Sc3nccn3S4(=O)=O)c2n1
GI50 (BT-549): 11.5 µM | GI50 (Hs-578T): 13.5 µM | CC50 (HCT-116): 40.7 µM | TGI (SF-295): 24.5 µM | CC50 (Tumor Cell line): 91.2 µM | GI50 (HL-60): 0.01 µM | TGI (MOLT-4): 20 µM | GI50 (M14 [1]): 7.24 µM | GI50 (SK-MEL-2): 13.2 µM | GI50 (SK-MEL-5): 10.7 µM | CC50 (NCI-H46): 26.9 µM | CC50 (NCI-H522): 66.1 µM | TGI (OVCAR-4 [2]): 24.5 µM | TGI (OVCAR-5 [3]): 37.2 µM | TGI (SK-OV-3): 97.7 µM | GI50 (CAKI-1): 23.4 µM | GI50 (786-0): 16.2 µM | GI50 (A498 [4]): 16.2 µM | GI50 (SN12C): 12.3 µM | GI50 (UO-31 [5]): 1.02 µM | CC50 (SR [6]): 27.5 µM | CC50 (SW-620): 58.9 µM | CC50 (OVCAR-5 [7]): 91.2 µM | CC50 (OVCAR-4 [8]): 61.7 µM | CC50 [9]: 55 µM | CC50 (T47D): 38 µM | CC50 (LOX IMVI [10]): 45.7 µM | TGI (LOX IMVI [11]): 18.2 µM | TGI (M14 [12]): 22.9 µM | CC50 (Malme-3M [13]): 64.6 µM | TGI (Malme-3M [14]): 33.1 µM | CC50 (A549): 63.1 µM | GI50 (ACHN): 8.51 µM | GI50 (COLO 205): 17 µM | TGI (UO-31 [15]): 42.7 µM | TGI (SR [16]): 5.89 µM | TGI (A498 [17]): 40.7 µM | CC50 (OVCAR-8): 53.7 µM | TGI (HOP-92): 67.6 µM
